The source made the active and inactive calls. The calls are words filed in the database; no cut-off is given here.
Columns and labels:
[1] = system: RAW264.7; assay: Cytotoxicity against mouse RAW264.7 cells derived macrophage assessed as reduction in cell viability upto 40 uM incubated for 24 hrs by CCK-8 assay; assay type: toxicity, cell-based; settings: raw264.7, 24 h
[2] = system: J774.1; assay: Cytotoxicity against mouse J774.1 cells derived macrophage assessed as reduction in cell viability upto 40 uM incubated for 24 hrs by CCK-8 assay; assay type: toxicity, cell-based; settings: j774.1, 24 h
[3] = system: THP-1; assay: Cytotoxicity against human THP-1 cells derived macrophage assessed as reduction in cell viability upto 40 uM incubated for 24 hrs by CCK-8 assay; assay type: toxicity, cell-based; settings: thp-1, 24 h
[4] = system: RAW264.7; assay: Antiinflammatory activity in mouse RAW264.7 assessed as inhibition of LPS-induced NO production incubated for 1 hrs followed by LPS stimulation for 18 hrs by Griess reagent based assay; assay type: functional, cell-based
[5] = system: THP-1; assay: Antiinflammatory activity against PMA-differentiated human THP-1 cells assessed as reduction in IL-1beta level at 20 uM incubated for 1 hrs followed by LPS stimulation for 12 hrs and ATP addition for 0.5 hrs by ELISA; assay type: functional, cell-based; settings: time 13.5 hrs

IC50 [4]: 8.85 µM
SMILES: CC(=O)O[C@@H]1C[C@H]2C(C)(C)C(=O)C=C[C@]2(C)[C@H]2CC[C@@]3(C)[C@@H](c4ccoc4)OC(=O)[C@H]4O[C@]43[C@@]21C
Activity [1]: Toxic
Activity [2]: Toxic
Activity [3]: Toxic
Activity [5]: Active

— ChEMBL document CHEMBL5120822, “Inhibition of the P2X7/NLRP3 Inflammasome Signaling Pathway by Deacetylgedunin from Toona sinensis” (J Nat Prod, 2022)
